Test results taken from patent publication US9758544B2 (priority 2014, dated 2017).

Tested on: subgenomic HCV replicon in Huh-7 cells
Assay: microbe, parasite or virus in culture
Type: cell-based
Settings: Hepatitis C virus, Huh-7, 72 h, read-out: EC50 (50% inhibitory concentration) in HCV replicon cells

## [2H]C([2H])(OP(=O)(N[C@H](C)C(=O)OC(C)C)Oc1ccccc1)[C@@]1(F)O[C@@H](n2cnc3c(OCC)nc(N)nc32)[C@](C)(F)[C@@H]1O (stereo partly shown) [Compound 2]
  EC50: < 1 µM
